Experimental data reported in US20130217664A1, “NOVEL COMPOUNDS USEFUL FOR THE TREATMENT OF DEGENERATIVE AND INFLAMMATORY DISEASES” (priority 2012, published 2013).

Assays:
Assay type in all cases: biochemical
human TYK2 = molecular target: T1, human TYK2 (Homo sapiens, UniProt P29597); assay: TYK2 inhibition assay; settings: recombinant human TYK2 catalytic domain, polyGT substrate
T1 construct: catalytic domain (amino acids 871-1187; catalog number 08-147); purchased Carna Biosciences 08-147
T1 sequence (P29597 871-1187): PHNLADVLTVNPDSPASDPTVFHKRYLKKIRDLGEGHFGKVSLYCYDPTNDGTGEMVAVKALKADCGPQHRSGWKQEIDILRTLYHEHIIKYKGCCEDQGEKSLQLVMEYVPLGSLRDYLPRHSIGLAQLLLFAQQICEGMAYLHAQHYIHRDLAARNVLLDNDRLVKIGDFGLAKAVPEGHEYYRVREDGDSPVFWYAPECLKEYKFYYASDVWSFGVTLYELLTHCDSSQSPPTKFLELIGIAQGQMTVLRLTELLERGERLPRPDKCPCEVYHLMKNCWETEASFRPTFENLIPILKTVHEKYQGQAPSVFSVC
Protocol: 1.4 TYK2 Inhibition Assay
After 90 min at 30° C., reactions were stopped by adding 25 μL/well of 150 mM phosphoric acid. […] Plates were washed 6 times with 300 μL per well of a 75 mM phosphoric acid solution and the bottom of the plates was sealed. 40 μL/well of Microscint-20 was added, the top of the plates was sealed and readout was performed using the Topcount (Perkin Elmer). Kinase activity was calculated by subtracting counts per min (cpm) obtained in the presence of a positive control inhibitor (10 μM staurosporine) from cpm obtained in the presence of vehicle. The ability of a test compound to inhibit this activity was determined as:
(§1) Percentage inhibition=((cpm determined for sample with test compound present−cpm determined for sample with positive control inhibitor)divided by(cpm determined in the presence of vehicle−cpm determined for sample with positive control inhibitor))*100.
Dose dilution series were prepared for the compounds enabling the testing of dose-response effects in the TYK2 assay and the calculation of the IC50 for each compound.

human JAK3 = molecular target: T2, human JAK3 (Homo sapiens, UniProt P52333); assay: JAK3 inhibition assay; settings: recombinant human JAK3 catalytic domain; polyGT substrate
T2 construct: catalytic domain (amino acids 781-1124; catalog number PV3855); purchased Invitrogen PV3855
T2 sequence (P52333 781-1124): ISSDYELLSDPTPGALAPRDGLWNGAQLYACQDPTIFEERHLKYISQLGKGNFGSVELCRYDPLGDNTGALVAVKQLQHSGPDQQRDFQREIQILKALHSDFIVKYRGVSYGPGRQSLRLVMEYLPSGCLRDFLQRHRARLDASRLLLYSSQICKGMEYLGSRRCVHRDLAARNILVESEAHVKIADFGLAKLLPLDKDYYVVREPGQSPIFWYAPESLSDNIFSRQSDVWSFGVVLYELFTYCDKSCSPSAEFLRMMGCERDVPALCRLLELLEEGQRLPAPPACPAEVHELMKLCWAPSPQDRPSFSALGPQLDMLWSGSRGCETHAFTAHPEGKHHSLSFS
Protocol: 1.3 JAK3 Inhibition Assay
0.5 ng JAK3 protein was incubated with 2.5 μg polyGT substrate (Sigma catalog number P0275) in kinase reaction buffer (25 mM Tris pH 7.5, 0.5 mM EGTA, 10 mM MgCl2, 2.5 mM DTT, 0.5 mM Na3VO4, 5 mM b-glycerolphosphate, 0.01% Triton X-100, 1 μM non-radioactive ATP, 0.25 μCi 33P-gamma-ATP (GE Healthcare, catalog number AH9968) final concentrations) with or without 5 μL containing test compound or vehicle (DMSO, 1% final concentration), in a total volume of 25 μL, in a polypropylene 96-well plate (Greiner, V-bottom). After 45 min at 30° C., reactions were stopped by adding 25 μL/well of 150 mM phosphoric acid. […] Plates were washed 6 times with 300 μL per well of a 75 mM phosphoric acid solution and the bottom of the plates was sealed. 40 μL/well of Microscint-20 was added, the top of the plates was sealed and readout was performed using the Topcount (Perkin Elmer). Kinase activity was calculated by subtracting counts per min (cpm) obtained in the presence of a positive control inhibitor (10 μM staurosporine) from cpm obtained in the presence of vehicle. The ability of a test compound to inhibit this activity was determined as:
as §1
(§2) Dose dilution series were prepared for the compounds enabling the testing of dose-response effects in the JAK3 assay and the calculation of the IC50 for each compound. Each compound was routinely tested at concentration of 20 μM followed by a 1/5 serial dilution, 10 points in a final concentration of 1% DMSO.

human JAK1 = molecular target: T3, human JAK1 (Homo sapiens, UniProt P23458); assay: JAK1 inhibition assay (polyGT substrate / Ulight-JAK1 peptide); settings: recombinant human JAK1 catalytic domain; polyGT or Ulight-JAK1 peptide assay
T3 construct: catalytic domain, amino acids 866-1154; catalog number PV4774; purchased Invitrogen PV4774
T3 sequence (P23458 866-1154): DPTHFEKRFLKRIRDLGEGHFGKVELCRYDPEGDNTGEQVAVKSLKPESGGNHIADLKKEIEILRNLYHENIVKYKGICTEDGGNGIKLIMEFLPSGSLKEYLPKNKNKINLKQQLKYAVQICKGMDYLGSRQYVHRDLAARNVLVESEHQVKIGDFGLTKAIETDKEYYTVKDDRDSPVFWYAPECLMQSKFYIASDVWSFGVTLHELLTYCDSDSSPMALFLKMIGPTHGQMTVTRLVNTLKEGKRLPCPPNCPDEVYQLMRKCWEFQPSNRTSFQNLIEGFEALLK
Protocol: 1.1 JAK1 Inhibition Assay
1.1.1 JAK1 Assay polyGT Substrate
After 45 min at 30° C., reactions are stopped by adding of 25 μL/well of 150 mM phosphoric acid. […] Plates are washed 6 times with 300 μL per well of a 75 mM phosphoric acid solution and the bottom of the plates is sealed. 40 μL/well of Microscint-20 is added, the top of the plates is sealed and readout is performed using the Topcount (Perkin Elmer). Kinase activity is calculated by subtracting counts per min (cpm) obtained in the presence of a positive control inhibitor (10 μM staurosporine) from cpm obtained in the presence of vehicle. The ability of a test compound to inhibit this activity is determined as:
as §1
Dose dilution series are prepared for the compounds enabling the testing of dose-response effects in the JAK1 assay and the calculation of the IC50 for each compound.
1.1.2 JAK1 Ulight-JAK1 Peptide Assay
After 60 min at room temperature, reactions were stopped by adding 20 μL/well of detection mixture (1× detection buffer (Perkin Elmer, catalog number CR97-100C), 0.5 nM Europium-anti-phosphotyrosine (PT66) (Perkin Elmer, catalog number AD0068), 10 mM EDTA). […] Kinase activity was calculated by subtracting relative fluorescence units (RFU) obtained in the presence of a positive control inhibitor (10 μM staurosporine) from RFU obtained in the presence of vehicle. The ability of a test compound to inhibit this activity was determined as:
Percentage inhibition=((RFU determined for sample with test compound present−RFU determined for sample with positive control inhibitor)divided by(RFU determined in the presence of vehicle−RFU determined for sample with positive control inhibitor))*100.
as §2, with “JAK1” for “JAK3”, “the” for “each”, “is” for “was”, “DMSO. […] The data are expressed as the average IC50 from the assays±standard error of the mean.” for “DMSO.”

**Q.** Which results are given for `CCc1ccccc1N(C)c1cc2c(cn1)ncn2C` [Compound 16, (2-Ethyl-phenyl)-methyl-(1-methyl-1H-imidazo[4,5-c]pyridin-6-yl)-amine]?
**A.** IC50 (human TYK2): 101 to 500 nM; IC50 (human JAK3): 501 to 1000 nM

**Q.** Which IC50 (human TYK2) does the source give for `CCc1cc(-c2ccc(OC)nc2)ccc1N(C)c1cc2c(cn1)ncn2C` [Compound 130, N-(2-ethyl-4-(6-methoxypyridin-3-yl)phenyl)-N,1-dimethyl-1H-imidazo[4,5-c]pyridin-6-amine] here?
**A.** 0.01 to 100 nM

**Q.** And the IC50 (human JAK1)?
**A.** 0.01 to 100 nM

**Q.** And the IC50 (human JAK3)?
**A.** 101 to 500 nM

**Q.** For `CCc1cc(C(=O)NCC(C)(C)O)ccc1N(C)c1cc2c(cn1)ncn2C` [Compound 161, 3-ethyl-N-(2-hydroxy-2-methylpropyl)-4-(methyl(1-methyl-1H-imidazo[4,5-c]pyridin-6-yl)amino)benzamide], which IC50 (human TYK2) is on record?
**A.** > 1000 nM

**Q.** And the IC50 (human JAK1)?
**A.** 101 to 500 nM

**Q.** What about the IC50 (human JAK3) of the same compound?
**A.** > 1000 nM

**Q.** Which results are given for `CCc1cc(-c2ccc(C#N)cc2)ccc1N(C)c1cc2c(cn1)ncn2C` [Compound 162, 3′-ethyl-4′-(methyl(1-methyl-1H-imidazo[4,5-c]pyridin-6-yl)amino)biphenyl-4-carbonitrile]?
**A.** IC50 (human TYK2): 0.01 to 100 nM; IC50 (human JAK1): 0.01 to 100 nM; IC50 (human JAK3): 101 to 500 nM

**Q.** For `CCc1cc(C(=O)NCC2CCCCN2C)ccc1N(C)c1cc2c(cn1)ncn2C` (centres unmarked) [Compound 165, 3-ethyl-4-(methyl(1-methyl-1H-imidazo[4,5-c]pyridin-6-yl)amino)-N-((1-methylpiperidin-2-yl)methyl)benzamide], which IC50 (human TYK2) is on record?
**A.** > 1000 nM

**Q.** And the IC50 (human JAK1)?
**A.** 101 to 500 nM

**Q.** And the IC50 (human JAK3)?
**A.** > 1000 nM

**Q.** For `CCc1cc(C(=O)NC2(C#N)CCN(C)CC2)ccc1N(C)c1cc2c(cn1)ncn2C` [Compound 166, N-(4-cyano-1-methylpiperidin-4-yl)-3-ethyl-4-(methyl(1-methyl-1H-imidazo[4,5-c]pyridin-6-yl)amino)benzamide], which IC50 (human TYK2) is on record?
**A.** > 1000 nM

**Q.** And the IC50 (human JAK1)?
**A.** 0.01 to 100 nM

**Q.** What about the IC50 (human JAK3) of the same compound?
**A.** > 1000 nM

**Q.** What does the source list for `CCc1cc(C(=O)NC#N)ccc1N(C)c1cc2c(cn1)ncn2C` [Compound 179, N-Cyano-3-ethyl-4-(methyl(1-methyl-1H-imidazo[4,5-c]pyridin-6-yl)amino)benzamide]?
**A.** IC50 (human TYK2): 0.01 to 100 nM; IC50 (human JAK1): 0.01 to 100 nM; IC50 (human JAK3): 101 to 500 nM

**Q.** `CCc1cc(O[C@H]2CCN(S(C)(=O)=O)C2)ccc1N(C)c1cc2c(cn1)ncn2C` [Compound 260, (S)-N-(2-ethyl-4-(1-(methylsulfonyl)pyrrolidin-3-yloxy)phenyl)-N,1-dimethyl-1H-imidazo[4,5-c]pyridin-6-amine] was tested. Which IC50 (human TYK2) did it give?
**A.** 101 to 500 nM

**Q.** And the IC50 (human JAK1)?
**A.** 0.01 to 100 nM

**Q.** And the IC50 (human JAK3)?
**A.** 101 to 500 nM

**Q.** For `COc1cc(-c2cccs2)ncc1N(C)c1cc2c(cn1)ncn2C` [Compound 264], which IC50 (human TYK2) is on record?
**A.** 0.01 to 100 nM

**Q.** And the IC50 (human JAK1)?
**A.** 0.01 to 100 nM

**Q.** What about the IC50 (human JAK3) of the same compound?
**A.** 101 to 500 nM

**Q.** `CCc1cc(-c2ccsc2)ncc1N(C)c1cc2c(cn1)ncn2C` [Compound 288, (4-Ethyl-6-thiophen-3-yl-pyridin-3-yl)-methyl-(1-methyl-1H-imidazo[4,5-c]pyridin-6-yl)-amine] was tested. Which IC50 (human TYK2) did it give?
**A.** 0.01 to 100 nM

**Q.** What about the IC50 (human JAK1) of the same compound?
**A.** 0.01 to 100 nM

**Q.** What about the IC50 (human JAK3) of the same compound?
**A.** 0.01 to 100 nM

**Q.** Which results are given for `CCc1cc(-c2cccs2)ncc1N(C)c1cc2c(cn1)ncn2C` [Compound 289]?
**A.** IC50 (human TYK2): 0.01 to 100 nM; IC50 (human JAK1): 0.01 to 100 nM; IC50 (human JAK3): 0.01 to 100 nM

**Q.** Which results are given for `CCc1cc(C2CN(S(C)(=O)=O)C2)ccc1N(C)c1cc2c(cn1)ncn2C` [Compound 290, [2-Ethyl-4-(1-methanesulfonyl-azetidin-3-yl)-phenyl]-methyl-(1-methyl-1H-imidazo[4,5-c]pyridin-6-yl)-amine]?
**A.** IC50 (human TYK2): 0.01 to 100 nM; IC50 (human JAK1): 0.01 to 100 nM; IC50 (human JAK3): 0.01 to 100 nM

**Q.** For `CCc1cc(CNC2CCN(C(=O)OC(C)(C)C)C2)ccc1N(C)c1cc2c(cn1)ncn2C` (centres unmarked) [Compound 291, 3-{3-Ethyl-4-[methyl-(1-methyl-1H-imidazo[4,5-c]pyridin-6-yl)-amino]-benzylamino}-pyrrolidine-1-carboxylic acid tert-butyl ester], which IC50 (human TYK2) is on record?
**A.** 101 to 500 nM

**Q.** And the IC50 (human JAK1)?
**A.** 0.01 to 100 nM

**Q.** What about the IC50 (human JAK3) of the same compound?
**A.** > 1000 nM

**Q.** What does the source list for `CCc1cc(CN(C)S(=O)(=O)C2CC2)ccc1N(C)c1cc2c(cn1)ncn2C` [Compound 292, Cyclopropanesulfonic acid {3-ethyl-4-[methyl-(1-methyl-1H-imidazo[4,5-c]pyridin-6-yl)-amino]-benzyl}-methyl-amide]?
**A.** IC50 (human TYK2): 101 to 500 nM; IC50 (human JAK1): 0.01 to 100 nM; IC50 (human JAK3): 0.01 to 100 nM

**Q.** `CCc1cc(CNC2CCNC2)ccc1N(C)c1cc2c(cn1)ncn2C` (centres unmarked) [Compound 293, [2-Ethyl-4-(pyrrolidin-3-ylaminomethyl)-phenyl]-methyl-(1-methyl-1H-imidazo[4,5-d]pyridin-6-yl)-amine] was tested. Which IC50 (human TYK2) did it give?
**A.** > 1000 nM

**Q.** And the IC50 (human JAK1)?
**A.** 0.01 to 100 nM

**Q.** What about the IC50 (human JAK3) of the same compound?
**A.** > 1000 nM

**Q.** `CCc1cc(CN(C)S(=O)(=O)CC)ccc1N(C)c1cc2c(cn1)ncn2C` [Compound 294, Ethanesulfonic acid {3-ethyl-4-[methyl-(1-methyl-1H-imidazo[4,5-c]pyridin-6-yl)-amino]-benzyl}-methyl-amide] was tested. Which IC50 (human TYK2) did it give?
**A.** 0.01 to 100 nM

**Q.** And the IC50 (human JAK1)?
**A.** 0.01 to 100 nM

**Q.** What about the IC50 (human JAK3) of the same compound?
**A.** 0.01 to 100 nM
